In US20140350273A1, “PEDIATRIC USES OF CABAZITAXEL” (AVENTIS PHARMA S.A., priority 2012, published 2014):
Read-outs that look alike come from different tables or passages of the source.

Test system: human osteosarcoma DM77
Type: in vivo
Details: for Tumor Volume Data (Day 21) Median / ΔT/ΔC % / ΔT/ΔC: day 21; for MTTE / T-C: volume endpoint 1400 mm^3
Procedure: In the reported examples supporting this invention, vials of the clinical formulation of cabazitaxel and docetaxel were used. […] The resultant solution contains 10 mg/mL of cabazitaxel. Stock solution of cabazitaxel was then diluted in 0.9% sodium chloride.
This efficacy may be quantified, for example, as changes in tumor volume for each treated (T) and control (C) group, which are calculated for each animal and each day by subtracting the tumor volume on the day of first treatment (staging day) from the tumor volume on the specified observation day. This allows calculating the tumor growth inhibition: ΔT/ΔC=(median delta T/median delta C)×100. Individual tumor volume changes from baseline are thereafter analyzed by a non-parametric two-way ANOVA-TYPE (with factors: group and repeated days) followed by a post-hoc contrasts analysis, with Bonferroni-Holm adjustment for multiplicity, comparing all treated groups to the control group. […] A probability less than 5% (p<0.05) was considered as significant.
Based on the National Cancer Institute (NCl) standards, a ΔT/ΔC≦40% is the minimal level required to declare activity.
This efficacy may also be quantified by the number of tumor regressions observed after therapy. Individual mice reporting a tumor volume ≦50% of the Day 0 measurement for two consecutive measurements over a seven day period were considered partial responders (PR). Individual mice lacking palpable tumors (<4×4 mm^2 for two consecutive measurements over a seven day period) were classified as complete responders (CR); a CR that persisted until study completion was considered a tumor-free survivor (TFS).
Efficacy could also be determined at study completion, using tumor growth delay (T-C) in days, which is calculated using the median time to endpoint (MTTE) value for each treatment (T) group versus control (C). A Log Rank multiple comparison test with Bonferroni-Holm adjustment for multiplicity was applied on individual TTE to compare the treated groups to the control group.
The efficacy of cabazitaxel in comparison with docetaxel on pediatric patient-derived tumor xenografts was determined experimentally in the following manner:
The animals subjected to the experiment are subcutaneously grafted unilaterally with approximately 30 mg of a tumor fragment from low passage pediatric patient-derived tumor xenografts. The animals are implanted with a human patient-derived pediatric tumor xenografted in immuno-compromised mice (Harlan; nu/nu). Several days post tumor implantation, mice are randomized according to their tumor burden to the different groups of treatments and controls. The agents are dosed intravenously at 5.8, 9.3, 15 or 24.2 mg/kg every 4 days for a total of 3 doses (q4d×3) to mice bearing a tumor burden at start of therapy (day 0) ranged from 125 to 250 mm^3.
Beginning Day 0, animals were observed daily and weighed twice weekly using a digital scale; data including individual and mean gram weights (Mean We±SD), mean percent weight change versus Day 0 were recorded for each group. Animal deaths were recorded daily and designated as drug-related (D), technical (T), tumor related (B), or unknown (U) based on weight loss and gross observation; single agent or combination groups reporting a mean >20% for a period of 7 days and/or >10% mortality were considered above the maximum tolerated dose (MTD) for that treatment on the evaluated regimen.
The selected tumor model, DM77, was a low passage patient-derived tumor xenograft derived from an osteosarcoma taken from the lung of a patient. […]

Q: What does the source list for `CC(=O)O[C@@]12CO[C@@H]1C[C@H](O)[C@@]1(C)C(=O)[C@H](O)C3=C(C)[C@@H](OC(=O)[C@H](O)[C@@H](NC(=O)OC(C)(C)C)c4ccccc4)C[C@@](O)([C@@H](OC(=O)c4ccccc4)[C@H]21)C3(C)C` [Docetaxel, docetaxel]?
A: #CR (5.8 mg/kg i.v./q4dx3): 0/0/0; #PR (5.8 mg/kg i.v./q4dx3): 0/0/0; #TFS (5.8 mg/kg i.v./q4dx3): 0/0/0; Drug Deaths Total (5.8 mg/kg i.v./q4dx3): 0; Weight Change at Nadir % (5.8 mg/kg i.v./q4dx3): −6%; Weight Change at Nadir Day (5.8 mg/kg i.v./q4dx3): 11 days; Tumor Volume Data (Day 21) Median (5.8 mg/kg i.v./q4dx3): 300 mm^3; ΔT/ΔC % (5.8 mg/kg i.v./q4dx3): 18.5%; MTTE (5.8 mg/kg i.v./q4dx3): 53 days; T-C (5.8 mg/kg i.v./q4dx3): 28 days; ΔT/ΔC (5.8 mg/kg q4d×3 IV): 18.5%; tumor volume changes from baseline, Median +/− nMAD (5.8 mg/kg, DAY 4): 47 +/− 47; tumor volume changes from baseline, Median +/− nMAD (5.8 mg/kg, DAY 7): 73 +/− 23; tumor volume changes from baseline, Median +/− nMAD (5.8 mg/kg, DAY 11): 122 +/− 56; tumor volume changes from baseline, Median +/− nMAD (5.8 mg/kg, DAY 14): 129 +/− 63; tumor volume changes from baseline, Median +/− nMAD (5.8 mg/kg, DAY 18): 169 +/− 116; tumor volume changes from baseline, Median +/− nMAD (5.8 mg/kg, DAY 21): 169 +/− 103; tumor volume changes from baseline, Median +/− nMAD (5.8 mg/kg, DAY 25): 217 +/− 151; tumor volume changes from baseline, Median +/− nMAD (5.8 mg/kg, DAY 28): 290 +/− 198; tumor volume changes from baseline, Median +/− nMAD (5.8 mg/kg, DAY 32): 332 +/− 266; tumor volume changes from baseline, Median +/− nMAD (5.8 mg/kg, DAY 35): 342 +/− 250; tumor volume changes from baseline, Median +/− nMAD (5.8 mg/kg, DAY 39): 342 +/− 121; tumor volume changes from baseline, Median +/− nMAD (5.8 mg/kg, DAY 42): 401 +/− 169.5; tumor volume changes from baseline, Median +/− nMAD (5.8 mg/kg, DAY 46): 546 +/− 185.5; tumor volume changes from baseline, Median +/− nMAD (5.8 mg/kg, DAY 49): 512 +/− 142; tumor volume changes from baseline, Median +/− nMAD (5.8 mg/kg, DAY 53): 657.5; tumor volume changes from baseline, Median +/− nMAD (5.8 mg/kg, DAY 56): 875.5; #CR (9.3 mg/kg i.v./q4dx3): 0/0/0; #PR (9.3 mg/kg i.v./q4dx3): 0/0/0; #TFS (9.3 mg/kg i.v./q4dx3): 0/0/0; Drug Deaths Total (9.3 mg/kg i.v./q4dx3): 0; Weight Change at Nadir % (9.3 mg/kg i.v./q4dx3): −7%; Weight Change at Nadir Day (9.3 mg/kg i.v./q4dx3): 14 days; Tumor Volume Data (Day 21) Median (9.3 mg/kg i.v./q4dx3): 266 mm^3; ΔT/ΔC % (9.3 mg/kg i.v./q4dx3): 9.6%; MTTE (9.3 mg/kg i.v./q4dx3): >60 days; T-C (9.3 mg/kg i.v./q4dx3): >35 days; numbers of PR (9.3 mg/kg q4d×3 IV): 0/9; ΔT/ΔC (9.3 mg/kg q4d×3 IV): 9.6%; tumor volume changes from baseline, Median +/− nMAD (9.3 mg/kg, DAY 4): 87 +/− 40; tumor volume changes from baseline, Median +/− nMAD (9.3 mg/kg, DAY 7): 87 +/− 42; tumor volume changes from baseline, Median +/− nMAD (9.3 mg/kg, DAY 11): 96 +/− 77; tumor volume changes from baseline, Median +/− nMAD (9.3 mg/kg, DAY 14): 96 +/− 69; tumor volume changes from baseline, Median +/− nMAD (9.3 mg/kg, DAY 18): 96 +/− 69; tumor volume changes from baseline, Median +/− nMAD (9.3 mg/kg, DAY 21): 88 +/− 74; tumor volume changes from baseline, Median +/− nMAD (9.3 mg/kg, DAY 25): 124 +/− 93; tumor volume changes from baseline, Median +/− nMAD (9.3 mg/kg, DAY 28): 124 +/− 171; tumor volume changes from baseline, Median +/− nMAD (9.3 mg/kg, DAY 32): 154 +/− 201; tumor volume changes from baseline, Median +/− nMAD (9.3 mg/kg, DAY 35): 169 +/− 235; tumor volume changes from baseline, Median +/− nMAD (9.3 mg/kg, DAY 39): 202 +/− 268; tumor volume changes from baseline, Median +/− nMAD (9.3 mg/kg, DAY 42): 309 +/− 375; tumor volume changes from baseline, Median +/− nMAD (9.3 mg/kg, DAY 46): 309 +/− 375; tumor volume changes from baseline, Median +/− nMAD (9.3 mg/kg, DAY 49): 424.5
